This passage reports IC50 results from patent US6596772B1, “Phosphate mimics and methods of treatment using phosphatase inhibitors” (Sugen, Inc., priority 1999, dated 2003).

Holding throughout (experiment): PTP IC50 assay, pNPP or FDP as substrate
Holding throughout (assay type): biochemical

One test concerns the target T1, PTP SIGMA (Homo sapiens, UniProt Q13332).
T1 construct: made in house; host or cells: E. coli BL-21 (pGEX 6P-1)
T1 sequence (Q13332 1320-1660 limits assumed): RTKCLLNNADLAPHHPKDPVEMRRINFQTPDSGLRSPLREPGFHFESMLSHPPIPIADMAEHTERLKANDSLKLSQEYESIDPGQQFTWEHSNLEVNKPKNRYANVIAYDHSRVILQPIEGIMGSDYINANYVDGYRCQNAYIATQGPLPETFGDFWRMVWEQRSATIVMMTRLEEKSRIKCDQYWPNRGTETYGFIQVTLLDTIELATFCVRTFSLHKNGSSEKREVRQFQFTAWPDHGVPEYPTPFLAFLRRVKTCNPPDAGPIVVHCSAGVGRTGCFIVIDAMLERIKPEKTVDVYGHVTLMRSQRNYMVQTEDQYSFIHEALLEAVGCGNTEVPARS
As to the method:
(§1) The following in vitro assay procedure is preferred to determine the level of activity and effect of the different compounds of the present invention on one or more of the PTPs. Similar assays can be designed along the same lines for any PTP using techniques well known in the art.
(§2) The catalytic assays described herein are performed in a 96-well format. The general procedure begins with the determination of PTP optimal pH using a three-component buffer system that minimizes ionic strength variations across a wide range of buffer pH. Next, the Michaelis-Menten constant, or Km, is determined for each specific substrate-PTP system. This Km value is subsequently used as the substrate reaction concentration for compound screening. Finally, the test PTP is exposed to varying concentrations of compound for fifteen minutes and allowed to react with substrate for ten minutes. The results are plotted as percent inhibition versus compound concentration and the IC50 interpolated from the plot.
(§3) All assays were performed using pNPP or FDP as substrate. The optimum pH was determined for each PTP used.
(§4) PTPase activity was assayed at 25° C. in a 100-μl reaction mixture containing an appropriate concentration of pNPP or FDP as substrate. The reaction was initiated by addition of the PTP and quenched after 10 min by addition of 50 μl of IN NaOH. The non-enzymatic hydrolysis of the substrate was corrected by measuring the control without the addition of the enzyme. The amount of p-nitrophenol produced was determined from the absorbance at 410 nm. To determine the kinetic parameter, Km, the initial velocities were measured at various substrate concentrations and the data were fitted to the Michaelis equation where velocity=(Vmax*[S])/(Km+[S]), and [S]=substrate reaction concentration.
(§5) The effect of the compounds on PTP was evaluated at 25° C. using pNPP or FDP as substrate. PTP was pre-incubated for fifteen minutes with various concentrations of compound. Substrate was then added at a fixed concentration (usually equal to the Km previously calculated). After 10 minutes, NaOH was added to stop the reaction. The hydrolysis of pNPP was followed at 410 nm on the Biotek Powerwave 200 microplate scanning spectrophotometer. The percent inhibition was calculated as follows: Percent Inhibition=[(control signal−compound signal)/control signal] ×100%. The IC50 was then determined by interpolation of a percent inhibition versus compound concentration plot.
(§6) Plasmids designed for bacterial GST-PTP fusion protein expression were derived by insertion of PCR-generated human PTP fragments into pGEX vectors (Pharmacia Biotech). Several of these constructs were then used to subclone phosphatases into pFastBac-1for expression in Sf-9 insect cells. Oligonucleotides used for the initial amplification of PTP genes are shown below. The cDNAs were prepared using the Gilbo BRL superscript preamplification system on RNAs purchased from Clontech.
The PTP Sigma cDNA was amplified from human brain single strand cDNA (Clontech RNA) using the following oligonucleotides: 5′oligo: 5′-[…]-3′ (SEQ ID NO: 12) 3′oligo: 5′-[…]-3′ (SEQ ID NO: 13) and subsequently ligated into pGex 6P-1 Eco RI/Xho I sites.

For another test, the target named is T2, PTP SHP2 (Homo sapiens, UniProt Q06124).
T2 construct: The catalytic domain was amplified using the following oligonucleotides; made in house; host or cells: Sf-9 insect cells (pFastBac-G2T)
T2 sequence (Q06124 247-517 limits assumed): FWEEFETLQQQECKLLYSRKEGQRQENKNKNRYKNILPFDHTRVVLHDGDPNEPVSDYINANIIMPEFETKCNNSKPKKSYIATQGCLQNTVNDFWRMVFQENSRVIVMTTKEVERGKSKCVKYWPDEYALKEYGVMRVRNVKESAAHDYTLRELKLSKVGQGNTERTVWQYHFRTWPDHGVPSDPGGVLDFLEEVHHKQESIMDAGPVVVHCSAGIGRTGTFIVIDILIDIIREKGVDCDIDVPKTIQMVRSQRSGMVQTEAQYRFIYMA
The method, then:
as §1, §2, §3, §4, §5, §6
SHP-2 cDNA was used as described earlier (Vogel W., et al.,1993, Science, 259:1611-4). The catalytic domain was amplified using the following oligonucleotides 5′oligo: 5′-[…]-3′ (SEQ ID NO: 2) 3′oligo: 5′-[…]-3′ (SEQ ID NO: 3) and subsequently subcloned into BamH1-Xba-1 sites. It was then ligated into pfas Bac-G2T BamH1-Xba-1 sites.

Another test deals with T3, PTP 1B (Homo sapiens, UniProt P18031).
T3 construct: made in house; host or cells: Sf-9 insect cells (pFastBac-G2T)
T3 sequence (P18031 1-435): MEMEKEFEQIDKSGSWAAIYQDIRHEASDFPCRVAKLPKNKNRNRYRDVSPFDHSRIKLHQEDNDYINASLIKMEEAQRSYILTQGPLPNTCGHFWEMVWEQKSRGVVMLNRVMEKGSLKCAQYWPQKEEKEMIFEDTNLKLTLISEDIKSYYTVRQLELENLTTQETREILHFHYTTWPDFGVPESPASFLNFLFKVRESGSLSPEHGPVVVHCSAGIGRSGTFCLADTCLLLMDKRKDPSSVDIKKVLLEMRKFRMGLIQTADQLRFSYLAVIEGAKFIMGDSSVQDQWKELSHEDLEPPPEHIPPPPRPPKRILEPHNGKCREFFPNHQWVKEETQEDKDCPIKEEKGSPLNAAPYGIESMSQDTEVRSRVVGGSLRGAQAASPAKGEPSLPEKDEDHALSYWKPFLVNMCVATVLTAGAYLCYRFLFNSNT
As to the method: as §1, §2, §3, §4, §5, §6
The PTP1b cDNA was amplified from human placenta single strand cDNA (Clontech RNA) using the following oligonucleotides: 5′oligo: 5′-[…] (SEQ ID NO: 4) 3′oligo: 5′-[…] (SEQ ID NO: 5) It was subsequently ligated into pFasBac G2TBamH1Xba-1 sites.

The mark [1] stands for this setting: pNPP or FDP as substrate, 25° C., read-out: PTP IC50 Sigma.
Setting [2] is: pNPP or FDP as substrate, 25° C., read-out: PTP IC50 SHP2.
Where [3] appears, read: pNPP or FDP as substrate, 25° C., read-out: PTP IC50 1B.

Like-named read-outs stand apart in the source and are kept apart here. Where only a bound is given, the exact number is not on record here.

Turning to `COC(=O)c1ccc(OCCOc2ccc(S(=O)(=O)C(F)(F)F)cc2[N+](=O)[O-])cc1` [Example 14, 4-[2-(2-nitro-4-trifluoromethanesulfonyl-phenoxy)-ethoxy]-benzoic acid methyl ester], the IC50 on PTP SIGMA (setting [1]) was 6.75 µM; at PTP SHP2 (setting [2]), above 100 µM; on PTP 1B (setting [3]), above 100 µM.

In the case of `O=C(O)c1cc(Oc2ccc(S(=O)(=O)C(F)(F)F)cc2)cc(Oc2ccc(S(=O)(=O)C(F)(F)F)cc2)c1` [Example 31, 3,5-Bis-(4-trifluoromethanesulfonyl-phenoxy)-benzoic acid], the IC50 at PTP SIGMA (setting [1]) is 7.7 µM; at PTP SHP2 (setting [2]), 5.7 µM; on PTP 1B (setting [3]), 6.2 µM.

`CC(C)(c1ccc(NS(=O)(=O)C(F)(F)F)cc1)c1ccc(C(C)(C)c2ccc(NS(=O)(=O)C(F)(F)F)cc2)cc1` [Example 76]: the values for the concentration for half-maximal inhibition (IC50) at PTP SIGMA (setting [1]), at PTP SHP2 (setting [2]) and on PTP 1B (setting [3]) were 20 µM, 1.8 µM and 2.5 µM, respectively.

For the compound `O=C(Cc1cccc(CC(=O)Nc2cccc(S(=O)(=O)C(F)(F)F)c2)c1)Nc1cccc(S(=O)(=O)C(F)(F)F)c1` [Example 21, N-(3-Trifluoromethanesulfonyl-phenyl)-2-{3-[(3-trifluoromethanesulfonyl-phenylcarbamoyl)-methyl]-phenyl}-acetamide], the figures for the IC50 on PTP SIGMA (setting [1]), on PTP SHP2 (setting [2]) and at PTP 1B (setting [3]) were 21.1 µM, 56.8 µM and 35.3 µM, respectively.

On to `O=S(=O)(Nc1ccc(OCCCOc2ccc(NS(=O)(=O)C(F)(F)F)cc2)cc1)C(F)(F)F` [Example 69, 1,3-Bis(4-trifluoromethylsulfonamidophenoxy)propane], for which the 50% inhibitory concentration (IC50) at PTP SIGMA (setting [1]) is 41.7 µM; on PTP SHP2 (setting [2]), 20.3 µM; on PTP 1B (setting [3]) it was 78.9 µM.

Consider `O=C(O)c1ccc(Oc2cccc(Oc3ccc(S(=O)(=O)C(F)(F)F)cc3[N+](=O)[O-])c2)cc1` [Example 15, 4-[3-(2-Nitro-4-trifluoromethanesulfonyl-phenoxy)-phenoxy]-benzoic acid], for which the IC50 is 11.7 µM at PTP SIGMA (setting [1]), 10.7 µM at PTP SHP2 (setting [2]) and 15.7 µM on PTP 1B (setting [3]).

For `O=S(=O)(Nc1ccc(OCCCCOc2ccc(NS(=O)(=O)C(F)(F)F)cc2)cc1)C(F)(F)F` [Example 70, 1,4-Bis(4-trifluoromethylsulfonamidophenoxy)butane], the IC50 was 38.1 µM at PTP SIGMA (setting [1]), 17.1 µM at PTP SHP2 (setting [2]) and 85 µM on PTP 1B (setting [3]).

In the case of `COC(=O)c1cc(Oc2ccc(S(=O)(=O)C(F)(F)F)cc2)cc(Oc2ccc(S(=O)(=O)C(F)(F)F)cc2)c1` [Example 9, 3,5-Bis-(4-trifluoromethanesulfonyl-phenoxy)-benzoic acid methyl ester], the IC50 at PTP SIGMA (setting [1]) was 49.9 µM; at PTP SHP2 (setting [2]), above 100 µM; at PTP 1B (setting [3]), above 100 µM.

Take `O=S(=O)(c1ccc(CCc2ccc(S(=O)(=O)C(F)(F)F)cc2)cc1)C(F)(F)F` [Example 4, 1,2-Bis(4-trifluoromethylsulfonylphenyl)ethane]: the 50% inhibitory concentration (IC50) at PTP SIGMA (setting [1]) was 81.1 µM; on PTP SHP2 (setting [2]) it was above 100 µM; on PTP 1B (setting [3]), above 100 µM.

In the case of `CN(C)CC(COc1ccc(S(=O)(=O)C(F)(F)F)cc1[N+](=O)[O-])Oc1ccc(S(=O)(=O)C(F)(F)F)cc1[N+](=O)[O-]` (stereo not drawn) [Example 24, [2,3-Bis-(2-nitro-4-trifluoromethanesulfonyl-phenoxy)-propyl]-dimethyl-amine], the half-inhibitory concentration (IC50) at PTP SIGMA (setting [1]) is 53.5 µM; at PTP SHP2 (setting [2]), above 100 µM; at PTP 1B (setting [3]) it was above 100 µM.

As for `COC(=O)Cc1cc(Oc2ccc(S(=O)(=O)C(F)(F)F)cc2[N+](=O)[O-])cc(Oc2ccc(S(=O)(=O)C(F)(F)F)cc2[N+](=O)[O-])c1` [Example 10, [3,5-Bis-(2-nitro-4-trifluoromethanesulfonyl-phenoxy)-phenyl]-acetic acid methyl ester], the IC50 at PTP SIGMA (setting [1]) was 33.8 µM; on PTP SHP2 (setting [2]), above 100 µM; at PTP 1B (setting [3]) it was above 100 µM.

Regarding `O=C(O)Cc1cccc(CC(=O)Nc2cccc(S(=O)(=O)C(F)(F)F)c2)c1` [Example 28, {3-[(3-Trifluoromethanesulfonyl-phenylcarbamoyl)-methyl]-phenyl}-acetic acid], the IC50 at PTP SIGMA (setting [1]) is 45.1 µM; on PTP SHP2 (setting [2]), 17.9 µM; at PTP 1B (setting [3]), 27.6 µM.

On to `O=S(=O)(c1ccc(COCc2ccc(S(=O)(=O)C(F)(F)F)cc2)cc1)C(F)(F)F` [Example 1, Bis (4-trifluoromethylsulfonylbenzyl) ether], for which the results for the IC50 on PTP SIGMA (setting [1]), at PTP SHP2 (setting [2]) and on PTP 1B (setting [3]) were above 100 µM, 2 µM and above 100 µM, respectively.

Take `O=S(=O)(Nc1ccc(Oc2ccc(Oc3ccc(NS(=O)(=O)C(F)(F)F)cc3)cc2)cc1)C(F)(F)F` [Example 71, 1,4-Bis(4-trifluoromethylsulfonamidophenoxy)benzene]: the half-inhibitory concentration (IC50) on PTP SIGMA (comparison of R groups, read-out: IC50 Sigma) worked out at 44 µM; on PTP SIGMA (setting [1]), 44 µM; at PTP SHP2 (comparison of R groups, read-out: IC50 SHP2) it was 3.4 µM; at PTP SHP2 (setting [2]), 3.4 µM; at PTP 1B (comparison of R groups, read-out: IC50 1B) it was 10.6 µM; on PTP 1B (setting [3]), 10.6 µM.

`O=C(O)Cc1ccccc1CC(=O)Nc1cccc(S(=O)(=O)C(F)(F)F)c1` [Example 27, {2-[(3-Trifluoromethanesulfonyl-phenylcarbamoyl)-methyl]-phenyl}-acetic acid]: the concentration for half-maximal inhibition (IC50) on PTP SIGMA (setting [1]), at PTP SHP2 (setting [2]) and on PTP 1B (setting [3]) was above 100 µM each time.

For `O=C(NCc1ccc(S(=O)(=O)C(F)(F)F)cc1)c1ccccc1` [Example 6, N-(4-Trifluoromethylsulfonylbenzyl)benzamide], the IC50 at PTP SIGMA (setting [1]), on PTP SHP2 (setting [2]) and at PTP 1B (setting [3]) was above 100 µM each time.
